Experimental data: patent US8895761B2, “4-phenylpyrane-3,5-diones, 4-phenylthiopyrane-3,5-diones and 2-phenylcyclohexane-1,3,5-triones as herbicides” (Syngenta Limited, priority 2007, dated 2014)

Experiments:
Format in all cases: in vivo
Lolium perenne (LOLPE) [1] = experiment: Pre-emergence herbicidal glasshouse test, Lolium perenne; conditions: 312 h, rate 250 g/ha, evaluated after 13 days, scale 100 = total damage to plant, 0 = no damage
Procedure: (§1) Seeds of a variety of test species were sown in standard soil in pots. After cultivation for one day (pre-emergence) or after 8 days cultivation (post-emergence) under controlled conditions in a glasshouse (at 24/16° C., day/night; 14 hours light; 65% humidity), the plants were sprayed with an aqueous spray solution derived from the formulation of the technical active ingredient in acetone/water (50:50) solution containing 0.5% Tween 20 (polyoxyethelyene sorbitan monolaurate, CAS RN 9005-64-5). The test plants were then grown in a glasshouse under controlled conditions in a glasshouse (at 24/16° C., day/night; 14 hours light; 65% humidity) and watered twice daily. After 13 days for pre and post-emergence, the test was evaluated ([…] to plant; 0=no damage to plant).
(§2) Setaria faberi (SETFA), Lolium perenne (LOLPE), Alopecurus myosuroides (ALOMY), Echinochloa crus-galli (ECHCG) and Avena fatua (AVEFA).

[2] = test system: Alopecurus myosuroides (ALOMY); experiment: Pre-emergence herbicidal glasshouse test, Alopecurus myosuroides; conditions: Alopecurus myosuroides, 312 h, rate 250 g/ha, evaluated after 13 days, scale 100 = total damage to plant, 0 = no damage
Procedure: as §1, §2

[3] = test system: Echinochloa crus-galli (ECHCG); experiment: Pre-emergence herbicidal glasshouse test, Echinochloa crus-galli; conditions: Echinochloa crus-galli, 312 h, rate 250 g/ha, evaluated after 13 days, scale 100 = total damage to plant, 0 = no damage
Procedure: as §1, §2

Avena fatua (AVEFA) [4] = experiment: Pre-emergence herbicidal glasshouse test, Avena fatua; conditions: Avena fatua, 312 h, rate 250 g/ha, evaluated after 13 days, scale 100 = total damage to plant, 0 = no damage
Procedure: as §1, §2

Lolium perenne (LOLPE) [5] = experiment: Post-emergence herbicidal glasshouse test, Lolium perenne; conditions: 312 h, rate 250 g/ha, evaluated after 13 days, scale 100 = total damage to plant, 0 = no damage
Procedure: as §1, §2

[6] = test system: Alopecurus myosuroides (ALOMY); experiment: Post-emergence herbicidal glasshouse test, Alopecurus myosuroides; conditions: Alopecurus myosuroides, 312 h, rate 250 g/ha, evaluated after 13 days, scale 100 = total damage to plant, 0 = no damage
Procedure: as §1, §2

[7] = test system: Echinochloa crus-galli (ECHCG); experiment: Post-emergence herbicidal glasshouse test, Echinochloa crus-galli; conditions: Echinochloa crus-galli, 312 h, rate 250 g/ha, evaluated after 13 days, scale 100 = total damage to plant, 0 = no damage
Procedure: as §1, §2

Avena fatua (AVEFA) [8] = experiment: Post-emergence herbicidal glasshouse test, Avena fatua; conditions: Avena fatua, 312 h, rate 250 g/ha, evaluated after 13 days, scale 100 = total damage to plant, 0 = no damage
Procedure: as §1, §2

SMILES | pest or weed control at 250 g/ha (Lolium perenne (LOLPE) [1]) [%] | pest or weed control at 250 g/ha [2] [%] | pest or weed control at 250 g/ha [3] [%] | pest or weed control at 250 g/ha (Avena fatua (AVEFA) [4]) [%] | pest or weed control at 250 g/ha (Lolium perenne (LOLPE) [5]) [%] | pest or weed control at 250 g/ha [6] [%] | pest or weed control at 250 g/ha [7] [%] | pest or weed control at 250 g/ha (Avena fatua (AVEFA) [8]) [%]
CCc1cc(-c2cc(F)c(F)c(F)c2)ccc1C1=C(O)C2(CCCC2)OC(C)(C)C1=O [Compound A-126] | 10 | 10 | 10 | 0 | 40 | 40 | 70 | 20
CCc1cc(-c2ccc(F)c(OC)c2)ccc1C1=C(O)C(C)(CC)OC(C)(CC)C1=O (stereo not shown) [Compound A-128] | 20 | 10 | 40 | 0 | 60 | 60 | 80 | 70
CCc1cc(-c2ccc(F)c(F)c2)ccc1C1=C(O)C(C)(CC)OC(C)(CC)C1=O (stereo not shown) [Compound A-129] | 30 | 30 | 90 | 10 | 80 | 90 | 90 | 70
CCc1cc(-c2cc(F)c(F)c(F)c2)ccc1C1=C(O)C(C)(CC)OC(C)(CC)C1=O (stereo not shown) [Compound A-130] | 60 | 50 | 40 | 10 | 60 | 90 | 90 | 70
CCc1cc(-c2cc(F)c(F)cc2F)ccc1C1=C(O)C(C)(CC)OC(C)(CC)C1=O (stereo not shown) [Compound A-132] | 20 | 20 | 10 | 0 | 50 | 60 | 80 | 0
CCc1cc(-c2ccc(F)c(F)c2F)ccc1C1=C(O)C(C)(CC)OC(C)(CC)C1=O (stereo not shown) [Compound A-133] | 30 | 30 | 0 | 0 | 50 | 60 | 60 | 20
CC1(C)OC(C)(C)C(O)=C(c2ccc(-c3ccc(F)cc3)cc2Cl)C1=O [Compound A-134] | 30 | 40 | 80 | 0 | 50 | 70 | 100 | 20
CC1(C)OC(C)(C)C(O)=C(c2ccc(-c3ccc(F)cc3)cc2OC(F)(F)F)C1=O [Compound A-135] | 10 | 30 | 30 | 10 | 60 | 60 | 100 | 10
CCc1cc(-c2ccc(F)c(OC)c2)ccc1C1=C(O)C(C)(C)SC(C)(C)C1=O [Compound B-4] | 0 | 0 | 0 | 0 | 50 | 40 | 60 | 80
CCc1cc(-c2ccc(F)c(F)c2)ccc1C1=C(O)C(C)(C)SC(C)(C)C1=O [Compound B-5] | 30 | 50 | 0 | 20 | 60 | 70 | 60 | 70
CCc1cc(-c2cc(F)c(F)c(F)c2)ccc1C1=C(O)C(C)(C)SC(C)(C)C1=O [Compound B-6] | 50 | 50 | 0 | 0 | 80 | 90 | 80 | 90
